According to US8563714B2, “Bridged spiro [2.4] heptane derivatives as ALX receptor and/or FPRL2 agonists” (Actelion Pharmaceuticals Ltd., priority 2009, dated 2013):

Key:
[1] = target: T1, human ALX receptor (Homo sapiens, UniProt P25090); assay: Intracellular calcium measurements (FLIPR), agonistic activity in HEK293-hALXR-Gα16 cells; type: cell-based; conditions: Fluo-4 calcium FLIPR, normalized to WKYMVm 10 nM
T1 construct: expressed in transfected cells; host or cells: HEK293 (HEK293-hALXR-Gα16)
T1 sequence (P25090 1-351): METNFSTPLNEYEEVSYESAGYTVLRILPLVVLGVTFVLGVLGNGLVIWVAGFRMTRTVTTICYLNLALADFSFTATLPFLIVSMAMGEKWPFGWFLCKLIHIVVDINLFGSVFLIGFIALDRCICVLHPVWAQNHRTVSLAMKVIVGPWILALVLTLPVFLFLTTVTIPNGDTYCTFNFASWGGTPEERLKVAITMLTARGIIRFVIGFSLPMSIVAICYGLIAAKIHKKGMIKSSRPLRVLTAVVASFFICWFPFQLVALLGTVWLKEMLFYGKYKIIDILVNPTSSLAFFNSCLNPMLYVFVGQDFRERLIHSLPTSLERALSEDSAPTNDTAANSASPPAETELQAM
How it was run: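 Agonist-induced calcium flux was recorded by FLIPR (488/540 nm) in HEK293-hALXR-Gα16 cells pre-loaded with Fluo-4 AM (1 μM, 60 min, 37°C). Peak signal above baseline, after subtracting buffer addition, was expressed relative to WKYMVm at 10 nM final.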

[2] = target: T2, human FPRL2 (Homo sapiens, UniProt P25089); assay: Intracellular calcium measurements (FLIPR), agonistic activity in HEK293-hFPRL2-Gα16 cells; type: cell-based; conditions: Fluo-4 calcium FLIPR, normalized to GLY14-Humanin 100 nM
T2 construct: expressed in transfected cells; host or cells: HEK293 (HEK293-hFPRL2-Gα16)
T2 sequence (P25089 1-353): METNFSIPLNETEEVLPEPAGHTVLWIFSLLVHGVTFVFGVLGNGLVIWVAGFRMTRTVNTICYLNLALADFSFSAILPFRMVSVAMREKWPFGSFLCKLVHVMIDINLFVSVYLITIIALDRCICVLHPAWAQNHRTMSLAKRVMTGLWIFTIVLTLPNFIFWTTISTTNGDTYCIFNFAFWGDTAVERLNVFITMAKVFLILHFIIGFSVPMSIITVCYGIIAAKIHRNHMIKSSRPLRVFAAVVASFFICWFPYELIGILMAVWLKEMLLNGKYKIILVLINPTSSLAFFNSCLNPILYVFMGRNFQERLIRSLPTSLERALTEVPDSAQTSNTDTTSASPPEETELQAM
How it was run: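 Peak values after baseline subtraction are expressed relative to 100 nM Gly14-Humanin; compounds diluted in assay buffer from 10 mM DMSO stocks.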

| Compound | EC50 [1] | EC50 [2] |
| --- | --- | --- |
| CCn1nc(C)cc1CCNC(=O)[C@H]1[C@H](C(=O)Nc2ccc(Br)cc2)[C@@H]2C=C[C@H]1C21CC1 (racemic) [Example 76, (5R*)—N^5-(4-Bromophenyl)-(6R*)—N^6-(2-(1-ethyl-3-methyl-1H-pyrazol-5-yl)-ethyl)-(4S*,7R*)-[4,7-ethenylene-spiro[2.4]heptane]-5,6-dicarboxamide] | 0.077 µM | 2.43 µM |
| CCN(CC)CCCNC(=O)[C@H]1[C@H](C(=O)Nc2ccc(Br)cc2)[C@@H]2C=C[C@H]1C21CC1 (racemic) [Example 78, (5R*)—N^5-(4-Bromophenyl)-(6R*)—N^6-(3-diethyl-amino-propyl)-(4S*,7R*)-[4,7-ethenylene-spiro[2.4]heptane]-5,6-dicarboxamide] | 0.08 µM | 5.48 µM |
| O=C(NCCN1CCOCC1)[C@H]1[C@H](C(=O)Nc2ccc(Br)cc2)[C@@H]2C=C[C@H]1C21CC1 (racemic) [Example 80, (5R*)—N^5-(4-Bromophenyl)-(6R*)—N^6-(2-morpholino-ethyl)-(4S*,7R*)-[4,7-ethenylene-spiro[2.4]heptane]-5,6-dicarboxamide] | 0.097 µM | 7.87 µM |
| O=C(NC1CCN(Cc2ccccc2)CC1)[C@H]1[C@H](C(=O)Nc2ccc(Br)cc2)[C@@H]2C=C[C@H]1C21CC1 (racemic) [Example 83, (5R*)—N^5-(4-Bromophenyl)-(6R*)—N^6—(N-benzyl-piperidin-4-yl)-(4S*,7R*)-[4,7-ethenylene-spiro[2.4]heptane]-5,6-dicarboxamide] | 0.123 µM | 0.678 µM |
| CCCCCCN(C)C(=O)[C@H]1[C@H](C(=O)Nc2ccc(Br)cc2)[C@@H]2C=C[C@H]1C21CC1 (racemic) [Example 84, (5R*)—N^5-(4-Bromophenyl)-(6R*)—N^6-methyl-N^6-hexyl-(4S*,7R*)-[4,7-ethenylene-spiro[2.4]heptane]-5,6-dicarboxamide] | 0.133 µM | 5.5 µM |
| CC(C)(C)CCNC(=O)[C@H]1[C@H](C(=O)Nc2ccc(Br)cc2)[C@@H]2C=C[C@H]1C21CC1 (racemic) [Example 85, (5R*)—N^5-(4-Bromophenyl)-(6R*)—N^6-(3,3-dimethyl-butyl)-(4S*,7R*)-[4,7-ethenylene-spiro[2.4]heptane]-5,6-dicarboxamide] | 0.146 µM | 8.3 µM |
| CN1CCC(NC(=O)[C@H]2[C@H](C(=O)Nc3ccc(Br)cc3)[C@@H]3C=C[C@H]2C32CC2)CC1 (racemic) [Example 86, (5R*)—N^5-(4-Bromophenyl)-(6R*)—N^6—(N-methyl-piperidin-4-yl)-(4S*,7R*)-[4,7-ethenylene-spiro[2.4]heptane]-5,6-dicarboxamide] | 0.147 µM | 6.94 µM |
| O=C(NCCCN1CCOCC1)[C@H]1[C@H](C(=O)Nc2ccc(Br)cc2)[C@@H]2C=C[C@H]1C21CC1 (racemic) [Example 87, (5R*)—N^5-(4-Bromophenyl)-(6R*)—N^6-(3-morpholino-propyl)-(4S*,7R*)-[4,7-ethenylene-spiro[2.4]heptane]-5,6-dicarboxamide] | 0.156 µM | 2.21 µM |
| Cc1[nH]ncc1CCCNC(=O)[C@H]1[C@H](C(=O)Nc2ccc(Br)cc2)[C@@H]2C=C[C@H]1C21CC1 (racemic) [Example 88, (5R*)—N^5-(4-Bromophenyl)-(6R*)—N^6-(3-(5-methyl-1H-pyrazol-4-yl)-propyl)-(4S*,7R*)-[4,7-ethenylene-spiro[2.4]heptane]-5,6-dicarboxamide] | 0.168 µM | 9.42 µM |
| CC(C)(C)OC(=O)CCCNC(=O)[C@H]1[C@H](C(=O)Nc2ccc(Br)cc2)[C@@H]2C=C[C@H]1C21CC1 (racemic) [Example 89, (5R*)—N^5-(4-Bromophenyl)-(6R*)—N^6-(3-tert-butoxycarbonyl-propyl)-(4S*,7R*)-[4,7-ethenylene-spiro[2.4]heptane]-5,6-dicarboxamide] | 0.191 µM | 2.47 µM |
| CC(C)(C)OC(=O)NCc1cccc(CNC(=O)[C@H]2[C@H](C(=O)Nc3ccc(Br)cc3)[C@@H]3C=C[C@H]2C32CC2)c1 (racemic) [Example 90, (5R*)—N^5-(4-Bromophenyl)-(6R*)—N^6-{[(3-N-tert-butoxycarbonyl-aminomethyl)-phenyl]-methyl}-(4S*,7R*)-[4,7-ethenylene-spiro[2.4]heptane]-5,6-dicarboxamide] | 0.194 µM | 2.26 µM |
| CCCN(CC1CC1)C(=O)[C@H]1[C@H](C(=O)Nc2ccc(Br)cc2)[C@@H]2C=C[C@H]1C21CC1 (racemic) [Example 91, (5R*)—N^5-(4-Bromophenyl)-(6R*)—N^6-propyl-N^6-(cyclopropylmethyl)-(4S*,7R*)-[4,7-ethenylene-spiro[2.4]heptane]-5,6-dicarboxamide] | 0.2 µM | 2.98 µM |
| CC(C)(C)OC(=O)N1CCC(CNC(=O)[C@H]2[C@H](C(=O)Nc3ccc(Br)cc3)[C@@H]3C=C[C@H]2C32CC2)CC1 (racemic) [Example 92, (5R*)—N^5-(4-Bromophenyl)-(6R*)—N^6—(N-tert-butoxycarbonyl-piperidin-4-yl-methyl)-(4S*,7R*)-[4,7-ethenylene-spiro[2.4]heptane]-5,6-dicarboxamide] | 0.204 µM | 2.67 µM |
| O=C(NC1CCCCC1)[C@H]1[C@H](C(=O)Nc2ccc(Br)cc2)[C@@H]2C=C[C@H]1C21CC1 (racemic) [Example 93, (5R*)—N^5-(4-Bromophenyl)-(6R*)—N^6-(cyclohexyl)-(4S*,7R*)-[4,7-ethenylene-spiro[2.4]heptane]-5,6-dicarboxamide] | 0.216 µM | > 25 µM |
| CC(C)(C)OC(=O)N1CCC(NC(=O)[C@H]2[C@H](C(=O)Nc3ccc(Br)cc3)[C@@H]3C=C[C@H]2C32CC2)CC1 (racemic) [Example 94, (5R*)—N^5-(4-Bromophenyl)-(6R*)—N^6—(N-tert-butoxycarbonyl-piperidin-4-yl)-(4S*,7R*)-[4,7-ethenylene-spiro[2.4]heptane]-5,6-dicarboxamide] | 0.218 µM | 1.04 µM |
| CC(C)(C)OC(=O)NCc1ccc(CNC(=O)[C@H]2[C@H](C(=O)Nc3ccc(Br)cc3)[C@@H]3C=C[C@H]2C32CC2)cc1 (racemic) [Example 97, (5R*)—N^5-(4-Bromophenyl)-(6R*)—N^6-[(4-N-tert-butoxycarbonyl-aminomethyl-phenyl)-methyl]-(4S*,7R*)-[4,7-ethenylene-spiro[2.4]heptane]-5,6-dicarboxamide] | 0.391 µM | 1.43 µM |
| CC(C)(C)OC(=O)N1CC(NC(=O)[C@H]2[C@H](C(=O)Nc3ccc(Br)cc3)[C@@H]3C=C[C@H]2C32CC2)C1 (racemic) [Example 98, (5R*)—N^5-(4-Bromophenyl)-(6R*)—N^6—(N-tert-butoxycarbonyl-azetidin-3-yl)-(4S*,7R*)-[4,7-ethenylene-spiro[2.4]heptane]-5,6-dicarboxamide] | 0.477 µM | 0.582 µM |
| Cc1onc(-c2ccccc2)c1CNC(=O)[C@H]1[C@H](C(=O)Nc2ccc(Br)cc2)[C@@H]2C=C[C@H]1C21CC1 (racemic) [Example 101, (5R*)—N^5-(4-Bromophenyl)-(6R*)—N^6-[(5-methyl-3-phenyl-isoxazol-4-yl)-methyl]-(4S*,7R*)-[4,7-ethenylene-spiro[2.4]heptane]-5,6-dicarboxamide] | 0.812 µM | 0.457 µM |
| NC(=O)CCNC(=O)[C@H]1[C@H](C(=O)Nc2ccc(Br)cc2)[C@@H]2CC[C@H]1C21CC1 (racemic) [Example 102, (5R*)—N^5-(4-Bromophenyl)-(6R*)—N^6-(2-carbamoyl-ethyl)-(4S*,7R*)-[4,7-ethylene-spiro[2.4]heptane]-5,6-dicarboxamide] | 0.00046 µM | > 25 µM |
| COCCCNC(=O)[C@H]1[C@H](C(=O)Nc2ccc(Br)cc2)[C@@H]2CC[C@H]1C21CC1 (racemic) [Example 103, (5R*)—N^5-(4-Bromophenyl)-(6R*)—N^6-(3-methoxy-propyl)-(4S*,7R*)-[4,7-ethylene-spiro[2.4]heptane]-5,6-dicarboxamide] | 0.0048 µM | 6.92 µM |
| O=C(NCCN1CCNC1=O)[C@H]1[C@H](C(=O)Nc2ccc(Br)cc2)[C@@H]2CC[C@H]1C21CC1 (racemic) [Example 105, (5R*)—N^5-(4-Bromophenyl)-(6R*)—N^6-[(2-imidazolidin-2-on-1-yl)-ethyl]-(4S*,7R*)-[4,7-ethylene-spiro[2.4]heptane]-5,6-dicarboxamide] | 0.0024 µM | 3.73 µM |
